Test results from US10703748B2, “Diazanaphthalen-3-yl carboxamides and preparation and use thereof” (Samumed, LLC, priority 2017, dated 2020).

What was measured:
[1] = test system: secreted cytokines TNFα, IL-6 and KC-GRO; experiment: Secreted cytokines in Lipopolysaccharide-stimulated BV-2 cells (Table 9 does not say which cytokine); format: cell-based, mouse; settings: Mus musculus, BV-2, 5 h; read-out: EC50
IL-6 = IL-6 inhibition in LPS-stimulated human peripheral blood mononuclear cells (HTRF); settings: Homo sapiens, PBMC; for EC50: 22 h; for inhibition at 10 µM: read-out: percentage in parentheses after EC50 >10
DYRK1A kinase = DYRK1A kinase (Homo sapiens, UniProt Q13627); experiment: DYRK1A kinase activity (Ser/Thr 18 peptide Z-lyte FRET assay); format: biochemical; settings: recombinant DYRK1A, 30 μM ATP, one hour at room temperature;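 note: kinase activity read as coumarin/fluorescein emission ratio after development step, with unphosphorylated and phosphorylated peptide forms setting 0% and 100% controls, values from dose-response curves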
GSK3β kinase = GSK3β kinase (Homo sapiens, UniProt P49841); experiment: GSK3β kinase activity (Ser/Thr 09 peptide Z-lyte FRET assay); format: biochemical; settings: recombinant kinase, 46 μM ATP, one hour at room temperature; read-out: EC50
Sequence of GSK3β kinase (P49841 whole entry): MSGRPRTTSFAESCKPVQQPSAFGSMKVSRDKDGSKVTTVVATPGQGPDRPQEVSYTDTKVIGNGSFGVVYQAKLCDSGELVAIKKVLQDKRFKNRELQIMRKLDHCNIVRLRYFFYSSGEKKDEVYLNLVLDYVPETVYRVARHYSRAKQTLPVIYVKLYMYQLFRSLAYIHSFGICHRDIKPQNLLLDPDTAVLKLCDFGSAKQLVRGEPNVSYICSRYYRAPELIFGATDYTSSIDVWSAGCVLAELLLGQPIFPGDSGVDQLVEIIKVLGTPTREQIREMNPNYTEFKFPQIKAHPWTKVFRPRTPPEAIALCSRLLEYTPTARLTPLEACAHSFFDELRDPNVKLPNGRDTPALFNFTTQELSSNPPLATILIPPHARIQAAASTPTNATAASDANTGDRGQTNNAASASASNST

[2] = test system: Wnt-responsive Sp5-Luc reporter in SW480 colon carcinoma cells; experiment: Screening assay for Wnt activity (Sp5-Luc reporter gene assay); settings: Homo sapiens; for EC50: SW480; for inhibition at 10 µM: SW480, read-out: percent inhibition at 10 μM
[3] = test system: SW480 colon carcinoma cells; experiment: Cell viability assay (CellTiter-Glo); settings: Homo sapiens; for EC50: SW480, 96 h; for inhibition at 10 µM: SW480, read-out: percent inhibition at 10 μM
[4] = test system: α-smooth muscle actin (aSMA) positive LL29 cells; experiment: Inhibition of the fibrotic process: αSMA staining in TGF-β1 treated LL29 fibroblasts from IPF patients; settings: Homo sapiens, Fibroblast; for EC50: 96 h; for inhibition at 10 µM: read-out: percentage in parentheses after EC50 >10

Row | Structure (SMILES) | EC50 [1] [µM] | EC50 (IL-6) [µM] | inhibition at 10 µM (IL-6) [%] | EC50 (DYRK1A kinase) [µM] | EC50 (GSK3β kinase) [µM] | EC50 [2] [µM] | inhibition at 10 µM [2] [%] | EC50 [3] [µM] | inhibition at 10 µM [3] [%] | EC50 [4] [µM] | inhibition at 10 µM [4] [%]
1 | C[C@H]1CCCN1CC(=O)Nc1cc2cc(-c3cnn(C)c3)cnc2cn1 [Compound 2767, (S)—N-(3-(1-Methyl-1H-pyrazol-4-yl)-1,7-naphthyridin-6-yl)-2-(2-methylpyrrolidin-1-yl)acetamide] | 0.896 | > 10 | 0 | 0.034 | 2.52 | > 10 | 20.7 | > 10 | 37 | > 10 | 13.8
2 | CN(CC(=O)Nc1cc2cc(-c3cnn(C)c3)cnc2cn1)C1CCC1 [Compound 2776, 2-(Cyclobutyl(methyl)amino)-N-(3-(1-methyl-1H-pyrazol-4-yl)-1,7-naphthyridin-6-yl)acetamide] | 1 | > 10 | 10.4 | 0.056 | > 10 | 0.836 | – | > 10 | 8.1 | > 10 | 39
3 | Cn1cc(-c2cnc3cnc(NC(=O)C4CCN(S(C)(=O)=O)CC4)cc3c2)cn1 [Compound 2792, N-(3-(1-Methyl-1H-pyrazol-4-yl)-1,7-naphthyridin-6-yl)-1-(methylsulfonyl) piperidine-4-carboxamide] | 0.357 | > 10 | 4 | 0.012 | 1.15 | > 10 | 38.1 | > 10 | 29 | > 10 | 44.8
4 | Cn1cc(-c2cnc3cnc(NC(=O)CC4CNCCO4)cc3c2)cn1 (centres unmarked) [Compound 2807, N-(3-(1-Methyl-1H-pyrazol-4-yl)-1,7-naphthyridin-6-yl)-2-(morpholin-2-yl) acetamide] | 0.919 | 7.31 | – | 0.074 | 4.94 | > 10 | 0 | > 10 | 7.9 | > 10 | 35.2
5 | Cn1cc(-c2cnc3cnc(NC(=O)C4CCN(Cc5ncco5)CC4)cc3c2)cn1 [Compound 2816, N-(3-(1-Methyl-1H-pyrazol-4-yl)-1,7-naphthyridin-6-yl)-1-(oxazol-2-ylmethyl)piperidine-4-carboxamide] | 0.445 | > 10 | 2.2 | 0.024 | 5.26 | > 10 | 15.4 | > 10 | 23.2 | > 10 | 27.3
6 | Cn1cc(-c2cnc3cnc(NC(=O)C4CCN(Cc5ncccn5)CC4)cc3c2)cn1 [Compound 2820, N-(3-(1-Methyl-1H-pyrazol-4-yl)-1,7-naphthyridin-6-yl)-1-(pyrimidin-2-ylmethyl)piperidine-4-carboxamide] | 0.895 | > 10 | 3.3 | 0.037 | 7.06 | > 10 | 5.3 | > 10 | 22.4 | 8.91 | –
7 | CN1CCCN(CC(=O)Nc2cc3cc(-c4cnn(C)c4)cnc3cn2)CC1 [Compound 2826, 2-(4-Methyl-1,4-diazepan-1-yl)-N-(3-(1-methyl-1H-pyrazol-4-yl)-1,7-naphthyridin-6-yl)acetamide] | 5.3 | > 10 | 2.1 | 0.082 | 5.37 | > 10 | 11.2 | > 10 | 20.4 | > 10 | 37.9
